The record followed here is ChEMBL document CHEMBL5143704, “Discovery of 2,4-diarylaminopyrimidine derivatives bearing dithiocarbamate moiety as novel ALK inhibitors” (Bioorg Med Chem, 2022).

SMILES strings stand for the structures. A value given as a limit tells only on which side of the number the result lay.

The test system of test [1] is NCI-H2228. In words: cells. As to conditions: Homo sapiens, NCI-H2228, 96 h.
Description: Antiproliferative activity against EML4-ALK positive human NCI-H2228 cells assessed as inhibition of cell growth incubated for 96 hrs by MTT assay
Test [2] relates to A549. As to the kind of experiment: cells. As to conditions: Homo sapiens, A549, 96 h.
Description: Antiproliferative activity against ALK-negative human A549 cells assessed as inhibition of cell growth incubated for 96 hrs by MTT assay
The subject of test [3] is HCT-116. As to the kind of experiment: cells. As to conditions: Homo sapiens, HCT-116, 96 h.
Description: Antiproliferative activity against ALK-negative human HCT-116 cells assessed as inhibition of cell growth incubated for 96 hrs by MTT assay
Test [4] deals with KARPAS-299. As to the kind of experiment: cells. The conditions noted are these: Homo sapiens, KARPAS-299, 96 h.
Description: Antiproliferative activity against NPM-ALK positive human KARPAS-299 cells assessed as inhibition of cell growth incubated for 96 hrs by CCK-8 assay
The target of test [5] is ALK tyrosine kinase receptor (Homo sapiens, UniProt Q9UM73). In words: Inhibition of wild type N-terminal GST tagged ALK cytoplasmic domain (1058 to 1620 end residues) (unknown origin) expressed in Sf21 cells incubated for 1 hr in presence of ATP.
Chain of ALK tyrosine kinase receptor (Q9UM73 whole entry, the tested form may be a part): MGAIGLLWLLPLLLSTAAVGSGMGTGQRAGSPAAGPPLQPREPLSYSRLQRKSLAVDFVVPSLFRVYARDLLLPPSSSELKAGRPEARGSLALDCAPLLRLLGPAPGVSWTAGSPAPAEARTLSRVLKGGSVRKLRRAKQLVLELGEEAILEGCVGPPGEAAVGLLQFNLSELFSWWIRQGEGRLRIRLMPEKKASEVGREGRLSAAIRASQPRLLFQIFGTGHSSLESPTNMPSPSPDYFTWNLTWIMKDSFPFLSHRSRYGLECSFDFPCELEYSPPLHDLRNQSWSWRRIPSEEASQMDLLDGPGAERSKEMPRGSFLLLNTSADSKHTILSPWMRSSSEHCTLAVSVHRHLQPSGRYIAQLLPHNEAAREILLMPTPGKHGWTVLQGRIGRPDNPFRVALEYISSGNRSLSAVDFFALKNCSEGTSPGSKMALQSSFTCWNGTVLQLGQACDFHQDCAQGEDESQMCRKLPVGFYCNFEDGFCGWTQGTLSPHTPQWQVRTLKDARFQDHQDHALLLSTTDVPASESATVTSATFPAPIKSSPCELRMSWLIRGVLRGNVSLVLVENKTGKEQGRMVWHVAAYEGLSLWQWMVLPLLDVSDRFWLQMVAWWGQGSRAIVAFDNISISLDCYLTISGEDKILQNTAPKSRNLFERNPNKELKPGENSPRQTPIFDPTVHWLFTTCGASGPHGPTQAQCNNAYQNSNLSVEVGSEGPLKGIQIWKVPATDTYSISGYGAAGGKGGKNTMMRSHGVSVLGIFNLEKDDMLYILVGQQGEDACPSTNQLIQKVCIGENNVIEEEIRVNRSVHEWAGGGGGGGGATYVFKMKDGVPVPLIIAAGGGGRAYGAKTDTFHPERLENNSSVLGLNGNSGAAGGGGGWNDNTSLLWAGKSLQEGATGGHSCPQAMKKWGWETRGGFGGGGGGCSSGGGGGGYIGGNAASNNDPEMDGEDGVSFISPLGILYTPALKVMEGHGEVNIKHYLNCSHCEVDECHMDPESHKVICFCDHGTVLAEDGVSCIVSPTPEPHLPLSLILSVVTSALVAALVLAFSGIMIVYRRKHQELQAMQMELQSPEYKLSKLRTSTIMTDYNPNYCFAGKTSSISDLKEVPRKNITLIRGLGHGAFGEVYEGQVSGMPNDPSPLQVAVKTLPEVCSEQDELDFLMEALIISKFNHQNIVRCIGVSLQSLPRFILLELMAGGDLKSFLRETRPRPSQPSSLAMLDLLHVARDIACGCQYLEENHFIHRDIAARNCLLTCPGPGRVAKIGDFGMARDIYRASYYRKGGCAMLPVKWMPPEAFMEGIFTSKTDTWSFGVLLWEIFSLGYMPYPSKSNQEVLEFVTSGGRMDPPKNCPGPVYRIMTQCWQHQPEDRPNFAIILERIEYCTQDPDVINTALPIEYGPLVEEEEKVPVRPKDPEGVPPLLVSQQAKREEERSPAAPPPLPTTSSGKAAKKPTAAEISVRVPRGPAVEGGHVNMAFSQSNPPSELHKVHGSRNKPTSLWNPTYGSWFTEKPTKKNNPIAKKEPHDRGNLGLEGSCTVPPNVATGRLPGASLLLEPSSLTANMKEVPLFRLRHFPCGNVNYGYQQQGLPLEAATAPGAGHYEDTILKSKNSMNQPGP

In general, IC50 refers to the midpoint of a concentration-inhibition curve. Consider `Cc1cc(Nc2ncc(Cl)c(Nc3ccccc3S(=O)(=O)C(C)C)n2)c(OC(C)C)cc1C1CCN(C(=S)SCC(=O)N2CCOCC2)CC1`, for which the IC50 was 1600 nM in test [1], more than 10000 nM in test [2], more than 10000 nM in test [3] and 100 nM in test [4].

Turning to `Cc1cc(Nc2ncc(Cl)c(Nc3ccccc3S(=O)(=O)C(C)C)n2)c(OC(C)C)cc1C1CCN(C(=S)SCC(N)=O)CC1`, the IC50 in test [1] was 270 nM; in test [2], more than 10000 nM; in test [3], 8150 nM; in test [4], 180 nM.

As to `Cc1cc(Nc2ncc(Cl)c(Nc3ccccc3S(=O)(=O)C(C)C)n2)c(OC(C)C)cc1C1CCN(C(=O)SCC(=S)N(C)CCN(C)C)CC1`, the IC50 in test [1] was 370 nM; in test [2], more than 10000 nM; in test [3] it was 6550 nM; in test [4] it was 480 nM.

As for `Cc1cc(Nc2ncc(Cl)c(Nc3ccccc3S(=O)(=O)C(C)C)n2)c(OC(C)C)cc1C1CCN(C(=S)SCCN2CCCC2)CC1`, the IC50 was 280 nM in test [1], 1720 nM in test [2], 4670 nM in test [3] and 220 nM in test [4].

In the case of `Cc1cc(Nc2ncc(Cl)c(Nc3ccccc3S(=O)(=O)C(C)C)n2)c(OC(C)C)cc1C1CCN(C(=O)SCC(=S)N2CC(C)N(C)C(C)C2)CC1` (configuration not stated), the IC50 was 210 nM in test [1]; more than 10000 nM in test [2]; 3960 nM in test [3]; 100 nM in test [4]; more than 100 nM in test [5].

As to `CCN1CCN(C(=S)CSC(=O)N2CCC(c3cc(OC(C)C)c(Nc4ncc(Cl)c(Nc5ccccc5S(=O)(=O)C(C)C)n4)cc3C)CC2)CC1`, the IC50 in test [1] is 130 nM; in test [2], more than 10000 nM; in test [3] it was 2060 nM; in test [4], 320 nM.

With `Cc1cc(Nc2ncc(Cl)c(Nc3ccccc3S(=O)(=O)C(C)C)n2)c(OC(C)C)cc1C1CCN(C(=O)SCC(=S)N2CCSCC2)CC1`, the IC50 in test [1] was 350 nM; in test [2], more than 10000 nM; in test [3], 5280 nM; in test [4] it was 230 nM.

With `CCN(CC)CCSC(=S)N1CCC(c2cc(OC(C)C)c(Nc3ncc(Cl)c(Nc4ccccc4S(=O)(=O)C(C)C)n3)cc2C)CC1`, the IC50 was 230 nM in test [1], more than 10000 nM in test [2], 980 nM in test [3] and 260 nM in test [4].

On to `Cc1cc(Nc2ncc(Cl)c(Nc3ccccc3S(=O)(=O)C(C)C)n2)c(OC(C)C)cc1C1CCN(C(=S)SCCN2CCN(C)CC2)CC1`, for which the IC50 was 270 nM in test [1]; more than 10000 nM in test [2]; 2190 nM in test [3]; 170 nM in test [4]; more than 100 nM in test [5].

For `CCN(CC)C(=O)CSC(=S)N1CCC(c2cc(OC(C)C)c(Nc3ncc(Cl)c(Nc4ccccc4S(=O)(=O)C(C)C)n3)cc2C)CC1`, the IC50 in test [1] is 860 nM; in test [2] it was more than 10000 nM; in test [3], 4740 nM; in test [4], 270 nM.
